Consider 20 molecules from patent US6656942B2, “Orally active salts with tyrosine kinase activity” (Merck & Co., Inc., priority 2000, dated 2003).

Each structure is given as a SMILES string. Structures can show the parent of a compound that is named as a salt.

What all share (format): physicochemical
Series [1] in a line: Solubility and pH of salts of 4-9 prepared in situ. Conditions: for solubility: 1.05 mole equivalents of acid, 100 μL of water, spun overnight, HPLC; for pH: pH of the liquid residue of the sample. The protocol: Two forms of the mesylate salt were made: Salt 4-9A above and Salt 4-9B below. Numerous salts of 4-9 were prepared in situ and analyzed using the procedure outlined below,
3) The reagents were mixed with a Vortex mixer and left to stand at room temperature or warmed if needed to dissolve the solid.
4) 100 μL of water were added to suspend the solid.
5) Tube was then covered with aluminum foil and spun overnight on a rotator.
6) The tube was then spun in a centrifuge for 10 minutes at 10,000 RPM.
7) An aliquot was removed from the sample and dried with nitrogen overnight to produce the solid residue (salt) which was analyzed via microscopy and DCS.
8) The liquid residue from the remaining sample was used to measure pH and determine the concentration of salt by HPLC.

Series [2] is described as follows: Measurement of salt solubility: free base 1-11 treated with acid, suspended in water, HPLC. Conditions: for pH: pH in equilibrium with the solid phase, most likely lower than pH of the salt in water; for solubility: salt made in situ with 1.05-1.1 molar equivalence of acid, suspended in water several days, method overestimates the solubility. As for the experimental part:
The pH and concentration of the compound in equilibrium with the solid phase was measured by HPLC (UV-Vis detection).

Series [3] in a line: Solubility of free base 1-11 at room temperature in 0.05M aqueous buffers, water, organic solvents and HPβCD. As for the experimental part: The solubility of 1-11 at room temperature was determined in 0.05M aqueous buffers, water and several organic solvents.
Series [4] can be described thus: Solubility of crystalline mesylate salts 1-11A and 1-11B. As for the experimental part: The amorphous mesylate salt was recrystallized from 50:50 Ethanol:THF to give a crystalline powder (Salt 1-11A). The X-ray powder diffraction pattern (XRPD) of the recrystallized mesylate salt 1-11A (FIG. 2) is indicative of crystalline material with multiple diffraction peaks between 5° and 30° 2-theta.
A second batch of crystalline mesylate salt (Salt 1-11B) was obtained by the following procdeure. To a stirred suspension of 1-11 (4.026 g, 9.22 mmol) in MeOH was slowly added at room temperature (RT) one equivalent of a 0.3M solution of methanesulfonic acid (30.73 mL). After all the solid had dissolved, the mixture was filtered into a flask and concentrated under reduced pressure while cooled to about 10° C. The resulting solid was suspended with 200 mL of ethylacetate, filtered, and dried to afford the mesylate salt. […] This crystalline form is different by XRPD than the one recrystallized from the amorphous salt in EtOH/THF (Salt 1-11A).

A short description of series [5]: Aqueous solubility at room temperature, quantitated by HPLC. The conditions noted are these: for aqueous solubility at room temperature / solubility: water, HPLC, room temperature; for crystallization out of the concentrated aqueous solution: time scale of the experiment (24 hours); for solubility: thermodynamic from solid. The protocol:
The free base 2-1 is a yellow powder. […] The crystals appear plate-like with most of the particles below 10 microns. […] The aqueous solubility was measured using HPLC to quantitate the compound in suspension.
The mesylate salt 2-1A is a yellow powder. […] A broad non-reversible endotherm centered around 87° C. is attributed to loss of solvent/moisture. The aqueous solubility was measured using HPLC to quantitate the compound.
The HCl salt 2-1B was also a yellow powder. […] This indicates the presence of both amorphous and crystalline material. […] The aqueous solubility was measured using HPLC to quantitate the compound.
The free base is a yellow powder which contains particles that are birefringent under polarized light indicating the presence of crystalline material. […] The aqueous solubility was measured using HPLC to quantitate the compound in an aqueous suspension.
The HCl salt is also a yellow solid, which contains particles that are birefringent under polarized light indicating the presence of crystalline material. […] The aqueous solubility was measured using HPLC to quantitate the compound in suspension.
The yellow, mesylate salt was examined under polarized light by optical microscopy. […] It is possible that the small amount of crystalline solid went undetected by optical microscopy. The aqueous solubility was measured using HPLC to quantitate the compound in suspension.
This mesylate salt 4-9A, which is a yellow powder, was examined under polarized light by optical microscopy. The crystals appear birefringent under polarized light indicating crystallinity. The crystals appear plate-like with few agglomerates. […] The aqueous solubility was measured using HPLC to quantitate the compound in suspension.

For orientation: solubility means the dissolved amount per volume that the medium holds. Consider `COCCN(C)CCOc1ccc2[nH]c(-c3cc4ccccc4[nH]c3=O)cc2c1` [4-9 Free Base, 3-(5-{2-[(2-methoxyethyl)(methyl)amino]ethoxy}-1H-indol-2-yl)-2(1H)-quinolinone], for which the solubility in series [1] (pH 6.75, thermodynamic from solid, read-out: Solubility) turned out to be 75 µg/mL. Moreover, in series [1], the pH is recorded as 6.75.

As to `CS(=O)(=O)N1CCN(Cc2ccc3[nH]c(-c4cc5ccccc5[nH]c4=O)cc3c2)CC1` [Acetate salt of 1-11], in series [2], the pH stood at 3.3 and the solubility was 91 µg/mL.

As to `CS(=O)(=O)N1CCN(Cc2ccc3[nH]c(-c4cc5ccccc5[nH]c4=O)cc3c2)CC1` [Besylate salt of 1-11], in series [2], the pH amounted to 2.4 and the solubility was 3.8 µg/mL.

As to `CS(=O)(=O)N1CCN(Cc2ccc3[nH]c(-c4cc5ccccc5[nH]c4=O)cc3c2)CC1` [HBr salt of 1-11], in series [2], the pH amounted to 2.9 and the solubility is 200 µg/mL.

Turning to `CS(=O)(=O)N1CCN(Cc2ccc3[nH]c(-c4cc5ccccc5[nH]c4=O)cc3c2)CC1` [HCl salt of 1-11], in series [2], the pH worked out at 2.3 and the solubility is 430 µg/mL.

For the molecule `COCCN(C)CCOc1ccc2[nH]c(-c3cc4ccccc4[nH]c3=O)cc2c1` [HCl salt of 4-9], in series [1], the solubility amounted to 22400 µg/mL and the pH was 2.34.

Consider `CS(=O)(=O)N1CCN(Cc2ccc3[nH]c(-c4cc5ccccc5[nH]c4=O)cc3c2)CC1` [Maleate salt of 1-11], for which, in series [2], the pH is 2.5 and the solubility was 160 µg/mL.

As to `COCCN(C)CCOc1ccc2[nH]c(-c3cc4ccccc4[nH]c3=O)cc2c1` [Mesylate 4-9B], in series [1], the solubility is 22000 µg/mL and the pH is 5.08.

As for `CS(=O)(=O)N1CCN(Cc2ccc3[nH]c(-c4cc5ccccc5[nH]c4=O)cc3c2)CC1` [Mesylate salt of 1-11], in series [2], the pH amounted to 2.3 and the solubility was 580 µg/mL.

Take `CS(=O)(=O)N1CCN(Cc2ccc3[nH]c(-c4cc5ccccc5[nH]c4=O)cc3c2)CC1` [Salt 1-11, 3-[5-(4-Methanesulfonyl-piperazin-1-ylmethyl)-1H-indol-2-yl]-1H-quinolin-2-one]: the solubility in series [3] (0.05 M carbonate buffer, pH 10.09, aqueous buffer, 0.05 M Carbonate, pHfinal 10.09, room temperature) is 79 µg/mL; in series [3] (0.05 M carbonate buffer, pH 11.15, aqueous buffer, 0.05 M Carbonate, pHfinal 11.15, room temperature), 77 µg/mL; in series [3] (0.05 M citrate buffer, pH 3.23, aqueous buffer, 0.05 M Citrate, pHfinal 3.23, room temperature) it was 92 µg/mL; in series [3] (0.05 M citrate buffer, pH 4.15, aqueous buffer, 0.05 M Citrate, pHfinal 4.15, room temperature), 73 µg/mL; in series [3] (0.05 M citrate buffer, pH 5.07, aqueous buffer, 0.05 M Citrate, pHfinal 5.07, room temperature), 70 µg/mL; in series [3] (0.05 M citrate buffer, pH 6.01, aqueous buffer, 0.05 M Citrate, pHfinal 6.01, room temperature), 71 µg/mL. For the same molecule, the solubility in series [3] (0.05 M phosphate buffer, pH 6.96, aqueous buffer, 0.05 M Phosphate, pHfinal 6.96, room temperature) worked out at 71 µg/mL; in series [3] (0.05 M phosphate buffer, pH 7.93, aqueous buffer, 0.05 M Phosphate, pHfinal 7.93, room temperature), 74 µg/mL; in series [3] (0.05 M phosphate buffer, pH 8.86, aqueous buffer, 0.05 M Phosphate, pHfinal 8.86, room temperature), 73 µg/mL; in series [3] (25% HPβCD in water, aqueous with cosolvent or surfactant or cyclodextrin, 25% HPβCD, native pH in water (pH = 7.5)) it was 168 µg/mL; in series [3] (50% aqueous Can (probably ACN, acetonitrile), aqueous with cosolvent or surfactant or cyclodextrin, 50% Aqueous Can, room temperature) it was 60 µg/mL; in series [3] (Water, room temperature) it was 0.03 µg/mL. Moreover, the solubility in series [3] (organic solvent or mixture, Acetonitrile, room temperature) was 84 µg/mL; in series [3] (organic solvent or mixture, Ethanol, room temperature), 19 µg/mL; in series [3] (organic solvent or mixture, Isopropanol, room temperature), 6.5 µg/mL; in series [3] (pH 2.45, simulated gastric fluid, 0.01 N HCl, pHfinal 2.45, room temperature), 400 µg/mL; in series [3] (pH 3, aqueous with cosolvent or surfactant or cyclodextrin, 10% HPβCD, pH adjusted to ca. 3.0 with HCl) it was 1740 µg/mL; in series [3] (pH 3, aqueous with cosolvent or surfactant or cyclodextrin, 15% HPβCD, pH adjusted to ca. 3.0 with HCl), 2350 µg/mL. The solubility was determined as 3570 µg/mL in series [3] (pH 3, aqueous with cosolvent or surfactant or cyclodextrin, 20% HPβCD, pH adjusted to ca. 3.0 with HCl) and 4560 µg/mL in series [3] (pH 3, aqueous with cosolvent or surfactant or cyclodextrin, 25% HPβCD, pH adjusted to ca. 3.0 with HCl).

`CS(=O)(=O)N1CCN(Cc2ccc3[nH]c(-c4cc5ccccc5[nH]c4=O)cc3c2)CC1` [Salt 1-11A]: the solubility was found to be 63 µg/mL in series [4] (Acetonitrile), 20 µg/mL in series [4] (Isopropanol) and 173 µg/mL in series [4] (Water).

One may read the aqueous solubility as the concentration that dissolves in the medium under given conditions. A low value points to a poorly soluble substance. Turning to `CN1CCN(Cc2ccc3[nH]c(-c4cc5ccccc5[nH]c4=O)cc3c2)CCC1=O` [Salt 2-1, 3-[5-(4-Methyl-5-oxo-[1,4]diazepan-1-ylmethyl)-1H-indol-2-yl]-1H-quinolin-2-one], in series [5], the “aqueous solubility at room temperature” value came to 28 µg/mL.

As for `CN1CCN(Cc2ccc3[nH]c(-c4cc5ccccc5[nH]c4=O)cc3c2)CCC1=O` [Salt 2-1A, 4-Methyl-5-oxo-1-[2-(2-oxo-1.2-dihydro-quinolin-3-yl)-1H-indol-5-ylmethyl]-[1,4]diazepan-1-ium; methanesulfonate; methanesulfonate], in series [5], the “crystallization out of the concentrated aqueous solution” value is given as “no crystallization was observed” and the “aqueous solubility at room temperature” value is “greater than 9.89 mg/mL”.

On to `CN1CCN(Cc2ccc3[nH]c(-c4cc5ccccc5[nH]c4=O)cc3c2)CCC1=O.Cl` [Salt 2-1B, 4-Methyl-5-oxo-1-[2-(2-oxo-1,2-dihydro-quinolin-3-yl)-1H-indol-5-ylmethyl]-[1,4]diazepan-1-ium; methanesulfonate; chloride], for which, in series [5], the “crystallization out of the concentrated aqueous solution” value is reported as “did not crystallize out” and the solubility is above 10200 µg/mL.

With `O=C(CO)N1CCN(Cc2ccc3[nH]c(-c4cc5ccccc5[nH]c4=O)cc3c2)CC1` [Salt 3-10, 3-{5-[4-(2-Hydroxy-ethanoyl)-piperazin-1-ylmethyl]-1H-indol-2-yl}-1H-quinolin-2-one], the “aqueous solubility at room temperature” value in series [5] came to 63.5 µg/mL.

As to `O=C(CO)N1CCN(Cc2ccc3[nH]c(-c4cc5ccccc5[nH]c4=O)cc3c2)CC1` [Salt 3-10A, 4-(2-Hydroxy-ethanoyl) 1-[2-(2-oxo-1,2-dihydro-quinolin-3-yl)-1H-indol-5-ylmethyl]-piperazin-1H-ium; chloride], in series [5], the “aqueous solubility at room temperature” value turned out to be 1310 µg/mL.

Take `O=C(CO)N1CCN(Cc2ccc3[nH]c(-c4cc5ccccc5[nH]c4=O)cc3c2)CC1` [Salt 3-10B, 4-(2-Hydroxy-ethanoyl)-1-[2-(2-oxo-1,2-dihydro-quinolin-3-yl)-1H-indol-5-ylmethyl]-piperazin-1-ium; methanesulfonate]: in series [5] (methanesulfonate), the “aqueous solubility at room temperature” value amounted to 2430 µg/mL.

`COCCN(C)CCOc1ccc2[nH]c(-c3cc4ccccc4[nH]c3=O)cc2c1.CS(=O)(=O)O` [Salt 4-9A, 2-methoxy-N-methyl-N-(2-{[2-(2-oxo-1,2-dihydroquinolin-3-yl)-1H-indol-5-yl]oxy}ethyl)ethanaminium methanesulfonate] registered a solubility in series [5] of 1500 µg/mL.

Take `CS(=O)(=O)N1CCN(Cc2ccc3[nH]c(-c4cc5ccccc5[nH]c4=O)cc3c2)CC1` [Sulfate salt of 1-11]: in series [2], the pH is given as 1.5 and the solubility was 130 µg/mL.

On to `COCCN(C)CCOc1ccc2[nH]c(-c3cc4ccccc4[nH]c3=O)cc2c1` [Sulfate salt of 4-9], for which, in series [1], the solubility is 4350 µg/mL and the pH stood at 1.40.
